# How the values were obtained:
# Format in all cases: cell-based
# [1] = molecular target: T1, GHRHR wild-type (HA-Flag-GHRHR) (Homo sapiens, UniProt Q02643); assay: GHRH-stimulated cAMP accumulation (LANCE), HEK 293T; settings: LANCE Ultra cAMP TR-FRET, 30 min RT, mean ± SEM, n ≥ 3
# T1 construct: GHRHR(23-423) (WT); HA signal peptide (replaces native signal M1-G22) (N); expressed in transfected cells; host or cells: HEK 293T, pcDNA3.1, transient
# Text: (§1) Fig. 2 Molecular recognition of GHRH by GHRHR and comparison of that with LA-PTH–PTH1R and GLP-1–GLP-1R. a Detailed interaction between GHRH and the TMD pocket of GHRHR with hydrogen bonds shown as dotted lines. b, c Pairwise comparison of GHRH bound to GHRHR with GLP-1 and LA-PTH in complex with their corresponding receptors, showing the relative positions of peptide ligands. Lime green, GHRHR; blue, GHRH; red, PTH1R and LA-PTH; purple, GLP-1R and GLP-1. d–f The effects of mutation in the ligand-binding pocket on cAMP accumulation. cAMP levels were measured in wild-type (WT) receptor and alanine mutants in ECL1, 2, and 3 (d), TM1, 2, and 3 (e), and TM5, 6, and 7 (f). cAMP signals were normalized to the maximum response of WT and concentration–response curves were analyzed using a three-parameter logistic equation. Data shown are means ± S.E.M. of at least three independent experiments (n = 3–5), conducted in triplicate. Source data are provided as a Source data file.
# GHRH-stimulated cAMP accumulation was measured by a LANCE Ultra cAMP kit (PerkinElmer). […] After 1 h RT incubation, TR-FRET signals (excitation: 320 nm, emission: 615 and 665 nm) were measured by an EnVision (PerkinElmer). […]
# 245 to determine pEC50 and Emax values. Emax values for mutants are expressed as a
# 246 percentage of the wild-type (WT). Cell surface expression was assessed by FACS to […]
# [2] = molecular target: T2, GHRHR F126A (Homo sapiens, UniProt Q02643, F126A); assay: cAMP accumulation, F126A; settings: mean ± SEM, n ≥ 3
# T2 construct: GHRHR(23-423)-; HA signal peptide (replaces native signal M1-G22) (N); expressed in transfected cells; host or cells: HEK 293T, pcDNA3.1, transient
# T2 sequence (Q02643 23-423 F126A): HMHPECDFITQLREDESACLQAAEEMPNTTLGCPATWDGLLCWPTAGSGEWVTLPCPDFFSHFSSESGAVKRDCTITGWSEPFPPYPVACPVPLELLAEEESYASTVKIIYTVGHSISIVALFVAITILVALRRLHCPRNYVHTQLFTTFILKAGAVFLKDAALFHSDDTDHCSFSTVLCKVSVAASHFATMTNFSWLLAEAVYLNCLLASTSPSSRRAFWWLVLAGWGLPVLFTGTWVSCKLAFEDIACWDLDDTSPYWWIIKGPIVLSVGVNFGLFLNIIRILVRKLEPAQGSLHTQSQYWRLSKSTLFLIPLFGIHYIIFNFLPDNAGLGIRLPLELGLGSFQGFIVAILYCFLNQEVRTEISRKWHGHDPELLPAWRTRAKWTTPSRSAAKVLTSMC
# Text: as §1
# (§2) GHRH-stimulated cAMP accumulation was measured by a LANCE Ultra cAMP kit (PerkinElmer). […] After 1 h RT incubation, TR-FRET signals (excitation: 320 nm, emission: 615 and 665 nm) were measured by an EnVision (PerkinElmer).
# [3] = molecular target: T3, GHRHR V129A (Homo sapiens, UniProt Q02643, V129A); assay: cAMP accumulation, V129A; settings: mean ± SEM, n ≥ 3
# T3 construct: GHRHR(23-423)-; HA signal peptide (replaces native signal M1-G22) (N); expressed in transfected cells; host or cells: HEK 293T, pcDNA3.1, transient
# T3 sequence (Q02643 23-423 V129A): as the sequence (Q02643 23-423 F126A) above, with A104F, V107A counted along it
# Text: as §1, §2
# [4] = molecular target: T4, GHRHR(23-405) (Homo sapiens, UniProt Q02643); assay: cAMP accumulation, construct GHRHR(23-405) (Supplementary Fig. 2b); settings: HEK 293T; mean ± SEM, n = 8-10
# T4 construct: 24 h after transfection with GHRHR(23-423), GHRHR(23-405), GHRHR(23-405)-LgBiT-2MBP, or HA-Flag-GHRHR (WT and mutants); HA signal peptide (replaces native signal M1-G22) (N); expressed in transfected cells; host or cells: HEK 293 T
# T4 sequence (Q02643 23-405): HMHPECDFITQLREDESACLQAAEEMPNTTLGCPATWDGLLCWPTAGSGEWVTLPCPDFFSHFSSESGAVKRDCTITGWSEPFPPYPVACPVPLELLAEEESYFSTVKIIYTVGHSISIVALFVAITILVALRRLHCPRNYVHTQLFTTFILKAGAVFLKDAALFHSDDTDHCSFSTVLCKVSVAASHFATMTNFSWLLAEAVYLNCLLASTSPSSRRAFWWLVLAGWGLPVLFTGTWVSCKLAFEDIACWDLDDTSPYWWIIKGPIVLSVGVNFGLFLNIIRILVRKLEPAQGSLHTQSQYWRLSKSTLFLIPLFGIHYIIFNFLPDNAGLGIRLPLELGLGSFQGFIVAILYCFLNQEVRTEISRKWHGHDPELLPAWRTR
# Procedure: GHRH-stimulated cAMP accumulation was measured by a LANCE Ultra cAMP kit (PerkinElmer). Briefly, 24 h after transfection with GHRHR(23-423), GHRHR(23-405), GHRHR(23-405)-LgBiT-2MBP, or HA-Flag-GHRHR (WT and mutants), HEK 293 T cells (3000/well in 384-well white plates, PerkinElmer) were digested by 0.2% (w/v) EDTA and 5 μL stimulation buffer (HBSS supplemented with 5 mM HEPES, 0.5 mM IBMX, and 0.1% (w/v) BSA, pH 7.4). Different concentrations (5 μL) of GHRH were then added and the stimulation lasted for 30 min at RT. The reaction was stopped by adding 5 μL Eu-cAMP tracer and 5 μL ULight-anti-cAMP. After 1 h RT incubation, TR-FRET signals (excitation: 320 nm, emission: 615 and 665 nm) were measured by an EnVision (PerkinElmer).
# 223 Supplementary Ta b l e 1. Effects of GHRH-mediated cAMP accumulation.
# Receptor cAMP Cell surface expression Binding
# pEC50 Emax (% WT) (% WT) pIC50 […]
# 225 to determine pEC50 and Emax values. pEC50 is the negative logarithm of the molar
# 226 concentration of agonist that induced half the maximal response. Cell surface […]
# 228 Flag antibody (Sigma-Aldrich, 1:300); Donkey anti-Mouse Alexa Fluor 488-
# 229 conjugated secondary antibody, (ThermoFisher Scientific, 1:1000)] on the […]
# 231 Binding data were analyzed using a three-parameter logistic equation to […]
# 234 determine statistical difference. *P<0.01; ND, not determined.
# [5] = molecular target: T5, GHRHR I289A (Homo sapiens, UniProt Q02643, I289A); assay: cAMP accumulation, I289A; settings: mean ± SEM, n ≥ 3
# T5 construct: GHRHR(23-423)-; HA signal peptide (replaces native signal M1-G22) (N); expressed in transfected cells; host or cells: HEK 293T, pcDNA3.1, transient
# T5 sequence (Q02643 23-423 I289A): as the sequence (Q02643 23-423 F126A) above, with A104F, I267A counted along it
# Text: as §1, §2
# [6] = molecular target: T6, GHRHR D350A (Homo sapiens, UniProt Q02643, D350A); assay: cAMP accumulation, D350A; settings: mean ± SEM, n ≥ 3
# T6 construct: GHRHR(23-423)-; HA signal peptide (replaces native signal M1-G22) (N); expressed in transfected cells; host or cells: HEK 293 T
# T6 sequence (Q02643 23-423 D350A): as the sequence (Q02643 23-423 F126A) above, with A104F, D328A counted along it
# Text: as §1, §2
# [7] = molecular target: T7, GHRHR E122A (Homo sapiens, UniProt Q02643, E122A); assay: cAMP accumulation, E122A; settings: mean ± SEM, n ≥ 3
# T7 construct: GHRHR(23-423)-; HA signal peptide (replaces native signal M1-G22) (N); expressed in transfected cells; host or cells: HEK 293T, pcDNA3.1, transient
# T7 sequence (Q02643 23-423 E122A): as the sequence (Q02643 23-423 F126A) above, with E100A, A104F counted along it
# Text: as §1, §2
# [8] = molecular target: T8, GHRHR D276A (Homo sapiens, UniProt Q02643, D276A); assay: cAMP accumulation, D276A; settings: mean ± SEM, n ≥ 3
# T8 construct: GHRHR(23-423)-; HA signal peptide (replaces native signal M1-G22) (N); expressed in transfected cells; host or cells: HEK 293T, pcDNA3.1, transient
# T8 sequence (Q02643 23-423 D276A): as the sequence (Q02643 23-423 F126A) above, with A104F, D254A counted along it
# Text: as §1, §2
# [9] = molecular target: T9, GHRHR N346A (Homo sapiens, UniProt Q02643, N346A); assay: cAMP accumulation, N346A; settings: mean ± SEM, n ≥ 3
# T9 construct: GHRHR(23-423)-; HA signal peptide (replaces native signal M1-G22) (N); expressed in transfected cells; host or cells: HEK 293T, pcDNA3.1, transient
# T9 sequence (Q02643 23-423 N346A): as the sequence (Q02643 23-423 F126A) above, with A104F, N324A counted along it
# Text: as §1, §2
# [10] = molecular target: T10, GHRHR A271R (Homo sapiens, UniProt Q02643, A271R); assay: cAMP accumulation, A271R; settings: mean ± SEM, n ≥ 3
# T10 construct: GHRHR(23-423)-; HA signal peptide (replaces native signal M1-G22) (N); expressed in transfected cells; host or cells: HEK 293T, pcDNA3.1, transient
# T10 sequence (Q02643 23-423 A271R): as the sequence (Q02643 23-423 F126A) above, with A104F, A249R counted along it
# Text: as §1, §2
# T1 sequence (Q02643 23-423): as the sequence (Q02643 23-423 F126A) above, with A104F counted along it
structure (smiles),measurement,setting,value
"CC[C@H](C)[C@H](NC(=O)[C@H](C)NC(=O)[C@H](CC(=O)O)NC(=O)[C@H](C)NC(=O)[C@@H](N)Cc1ccc(O)cc1)C(=O)N[C@@H](Cc1ccccc1)C(=O)N[C@H](C(=O)N[C@@H](CC(N)=O)C(=O)N[C@@H](CO)C(=O)N[C@@H](Cc1ccc(O)cc1)C(=O)N[C@@H](CCCNC(=N)N)C(=O)N[C@@H](CCCCN)C(=O)N[C@H](C(=O)N[C@@H](CC(C)C)C(=O)NCC(=O)N[C@@H](CCC(N)=O)C(=O)N[C@@H](CC(C)C)C(=O)N[C@@H](CO)C(=O)N[C@@H](C)C(=O)N[C@@H](CCCNC(=N)N)C(=O)N[C@@H](CCCCN)C(=O)N[C@@H](CC(C)C)C(=O)N[C@@H](CC(C)C)C(=O)N[C@@H](CCC(N)=O)C(=O)N[C@@H](CC(=O)O)C(=O)N[C@H](C(=O)N[C@@H](CCSC)C(=O)N[C@@H](CO)C(=O)N[C@@H](CCCNC(=N)N)C(=O)N[C@@H](CCC(N)=O)C(=O)N[C@@H](CCC(N)=O)C(=O)NCC(=O)N[C@@H](CCC(=O)O)C(=O)N[C@@H](CO)C(=O)N[C@@H](CC(N)=O)C(=O)N[C@@H](CCC(N)=O)C(=O)N[C@@H](CCC(=O)O)C(=O)N[C@@H](CCCNC(=N)N)C(=O)NCC(=O)N[C@@H](C)C(=O)N[C@@H](CCCNC(=N)N)C(=O)N[C@@H](C)C(=O)N[C@@H](CCCNC(=N)N)C(=O)N[C@@H](CC(C)C)C(N)=O)[C@@H](C)CC)C(C)C)[C@@H](C)O [GHRH, Growth hormone-releasing hormone]",EC50,[1]; 0.5 mM IBMX,0.182 nM
same,Emax,[1],100 % WT
same,EC50,[2],1.1 nM
same,Emax,[2],98.92±0.84 % WT
same,EC50,[3],166 nM
same,Emax,[3],24.33±6.11 % WT
same,EC50,[4],0.871 nM
same,Emax,[4],120.55±1.97 % WT
same,EC50,[5],9.77 nM
same,Emax,[5],93.36±2.36 % WT
same,EC50,[6],148 nM
same,Emax,[6],47.38±8.48 % WT
same,EC50,[7],0.11 nM
same,Emax,[7],98.38±3.26 % WT
same,EC50,[8],0.331 nM
same,Emax,[8],102.04±0.51 % WT
same,EC50,[9],1.41 nM
same,Emax,[9],101.21±3.69 % WT
same,EC50,[10],0.105 nM
same,Emax,[10],100.81±1.19 % WT
